Reference: US20080254993A1, “Use of abscisic acid analogs to enhance growth control” (priority 2007, published 2008)

How the values were obtained:
Kentucky bluegrass = assay: Greenhouse study on Kentucky bluegrass: turfgrass height, clip weight, turfgrass quality (Example 1); type: in vivo
Description: Greenhouse studies were conducted at the Research Farm of Valent BioSciences Corporation (Long Grove, Ill.). Grasses were grown in pots (18 cm in diameter and 18 cm in height) filled with Promix BX (available from Premier Horticulture Inc. Quakertown, Pa.). Grass was irrigated daily by an overhead irrigation system. The irrigation system was set up with multiple Tornado Mist Spray Heads (10 GPH at 40 PSI-Wetted diameter, NDS/Raindrip, Woodland Hills, Calif.). Spray heads were 1-meter apart from each other and 75 cm above grass canopy. Grass was cut with a scissor at 2.5 cm height and fertilizer (1 g/L all purpose fertilizer 20-20-20, available from The Scotts Company, Marysville, Ohio) was applied once per week.
(§1) Chemical solutions were prepared with distilled water. Tween 20 (0.05% v/v) was used as the surfactant when necessary. Trinexapac-ethyl (commercial product Primo Maxx, 11.3% active ingredient) was purchased from Syngenta Crop Protection Inc. (Greensboro, N.C.). ABA analogs, 8′ acetylene-ABA, acid (PBI-524), 8′ acetylene-ABA, ester (PBI-429), 8′ cyclopropane ester (PBI-696), or Tetralone, first carbon tail acetylene, ester (PBI-702), were obtained from Plant Biotechnology Institute, National Research Council of Canada (Saskatoon, Saskatchewan, Canada).
(§2) Chemical solutions were foliar applied to the turfgrass canopy at the rate of 4-gallons/1000 square foot (or 0.163 L/m^−2) immediately after finishing the preparation of solutions. After treatment, turfgrasses were arranged in a randomized complete block experimental design. Turfgrass quality, turfgrass height or clip fresh weight was measured on assigned dates. Turfgrass quality was visually rated on a 0-9 scale based on the color, uniformity, and density of the grass with 0 as the worst and 9 as the best. Turfgrass height was measured as the distance between canopy surface and soil. Clippings were collected form each plot; all plots were cut to a uniform height.
(§3) All experiments were randomized complete block experimental design. Data were analyzed by analysis of variance. Duncan's new multiple range tests at α=0.05 were used for mean separations.
Kentucky bluegrass sod was purchased from Deak sod farms, Inc. (Union Grove, Wis.). Grass was grown in the greenhouse for 94 days for establishment. Turfgrass was treated with one time foliar application of 50 ppm PBI-524, PBI-429, PBI-696 or PBI-702 alone or in combination with 250 ppm trinexapac-ethyl. The turfgrass was cut every 7 days. Turfgrass quality, turfgrass height, and clip weight were measured on days 7 and 35 after treatment.

creeping bentgrass = assay: Golf course green field study on creeping bentgrass with PBI-429: turfgrass height, soil moisture, turf quality (Example 2); type: in vivo, Penncross creeping bentgrass; conditions: for Soil moisture / Turfgrass height / Turf quality: 50 ppm PBI-429 alone; for Soil moisture (in words) / Turfgrass height (in words): trinexapac-ethyl 25 ppm, PBI-429 50 ppm, alone or combined; for Turf quality: visual 0-9 scale, 9 best
Description: Field studies were conducted at the nursery green or the practice green at Countryside golf course (Mundelein, Ill.). Both greens were sand based and growing Penncross creeping bentgrass. Grass was managed with typical Illinois golf course management practices.
as §1, §2, §3
Trinexapac-ethyl (25 ppm) or PBI-429 (50 ppm) were one time foliar applied alone or in combination to creeping bentgrass in the golf course green to investigate their effect on turfgrass quality, growth inhibition and soil moisture.

tomato = assay: Tomato plant height, growth rate and leaf number, greenhouse (Example 5); type: in vivo, Tomato (variety: Rutgers)
From the text: The effect of ABA analog (PBI-429) and trinexapac-ethyl combinations on transpiration and growth inhibition of dicotyledonous (tomato) was also examined in the greenhouse condition. Tomato (variety: Rutgers) seeds were sown in 18-cell flat filled with Promix PGX (available from Premier Horticulture Inc. Quakertown, Pa.) and grown for 3 weeks to allow for germination and initial growth. Plants were then transplanted into pots (18 cm in diameter and 18 cm in height), filled with Promix BX (available from Premier Horticulture Inc. Quakertown, Pa.), and grown for one week before the chemical treatment. Plants received daily irrigation and weekly fertilizer (1 g/L all purpose fertilizer 20-20-20, available from The Scotts Company, Marysville, Ohio). During the chemical treatment, a 24 mL (4 mL/plant) solution was foliar sprayed on the tomato canopy. Leaf transpiration rates were measured using a LI-1600 Steady State Porometer (LI-Cor, Lincoln, Nebr.) at 3, 5, 7, 10, and 14 days after treatment. The leaf transpiration rate was normalized to the percentage of control plant to minimize the experimental errors caused by environmental factors. Plant height was measured at 0, 3, 5, 7, 10 and 14 days after treatment. The growth rate was calculated based on the changes of plant height in certain intervals. The plants were harvested and the leaf number was counted at 14 days after treatment.

[1] = 7 days after treatment, 50 ppm ABA analog alone
[2] = 35 days after treatment, 50 ppm ABA analog alone
[3] = 25 ppm PBI-429, 3 days after treatment
[4] = 25 ppm PBI-429, 5 days after treatment
[5] = 25 ppm PBI-429, 7 days after treatment
[6] = 25 ppm PBI-429, 10 days after treatment
[7] = 25 ppm PBI-429, 14 days after treatment
[8] = 50 ppm PBI-429, 3 days after treatment
[9] = 50 ppm PBI-429, 5 days after treatment
[10] = 50 ppm PBI-429, 7 days after treatment
[11] = 50 ppm PBI-429, 10 days after treatment
[12] = 50 ppm PBI-429, 14 days after treatment
[13] = 100 ppm PBI-429, 3 days after treatment
[14] = 100 ppm PBI-429, 5 days after treatment
[15] = 100 ppm PBI-429, 7 days after treatment
[16] = 100 ppm PBI-429, 10 days after treatment
[17] = 100 ppm PBI-429, 14 days after treatment
[18] = 200 ppm PBI-429, 3 days after treatment
[19] = 200 ppm PBI-429, 5 days after treatment
[20] = 200 ppm PBI-429, 7 days after treatment
[21] = 200 ppm PBI-429, 10 days after treatment
[22] = 200 ppm PBI-429, 14 days after treatment
[23] = PBI-429 25-200 ppm, trinexapac-ethyl 250-2000 ppm, alone or combined

C#CC1(C)CC(=O)C=C(C)C1(O)/C=C/C(C)=C\C(=O)OC (stereo not shown) [PBI-429, 8′ acetylene-ABA, ester]
Clip Weight (Kentucky bluegrass; [1]): 0.4 g | Turfgrass height (Kentucky bluegrass; [1]): 5.8 cm | Turfgrass quality (Kentucky bluegrass; 7 days after treatment, 50 ppm ABA analog alone, visual 0-9 scale, 9 best): 6.6 | Turfgrass height and clip weight compared to the control (in words) (Kentucky bluegrass; 7 days after treatment, trinexapac-ethyl 250 ppm, PBI-524 or PBI-429 50 ppm, alone or combined): reduced turfgrass height and clip weight compared to the control | Clip Weight (Kentucky bluegrass; [2]): 2.3 g | Turfgrass height (Kentucky bluegrass; [2]): 8.1 cm | Turfgrass height and clip weight (in words) (Kentucky bluegrass; [2]): no longer reduced turfgrass height and clip weight | Soil moisture (creeping bentgrass; 4 days after treatment): 13.3% | Turfgrass height (creeping bentgrass; 4 days after treatment): 6.7 mm | Soil moisture (in words) (creeping bentgrass; 4 days after treatment): increase soil moisture | Turfgrass height (in words) (creeping bentgrass; 4 days after treatment): reduced turfgrass height more than the combination of trinexapac-ethyl and PBI-429 | Soil moisture (creeping bentgrass; 7 days after treatment): 13.1% | Turfgrass height (creeping bentgrass; 7 days after treatment): 6.3 mm | Turf quality (creeping bentgrass; 7 days after treatment): 7.1 | Soil moisture (in words) (creeping bentgrass; 7 days after treatment): increase soil moisture | Turfgrass height (in words) (creeping bentgrass; 7 days after treatment): reduced turfgrass height similarly | Soil moisture (creeping bentgrass; 38 days after treatment): 12.9% | Turfgrass height (creeping bentgrass; 38 days after treatment): 5.5 mm | Turf quality (creeping bentgrass; 38 days after treatment): 8.0 | Plant height (tomato; 25 ppm PBI-429, 0 days after treatment): 6.3 cm | Growth rate (tomato; [3]): 0.8 cm/day | Plant height (tomato; [3]): 8.6 cm | Growth rate (tomato; [4]): 0.9 cm/day | Plant height (tomato; [4]): 10.4 cm | Growth rate (tomato; [5]): 1.2 cm/day | Plant height (tomato; [5]): 12.8 cm | Growth rate (tomato; [6]): 1.1 cm/day | Plant height (tomato; [6]): 16.0 cm | Growth rate (tomato; [7]): 1.2 cm/day | Leaf number (tomato; [7]): 11.0 | Plant height (tomato; [7]): 20.7 cm | Plant height (tomato; 50 ppm PBI-429, 0 days after treatment): 6.3 cm | Growth rate (tomato; [8]): 0.6 cm/day | Plant height (tomato; [8]): 8.8 cm | Growth rate (tomato; [9]): 0.6 cm/day | Plant height (tomato; [9]): 10.0 cm | Growth rate (tomato; [10]): 0.8 cm/day | Plant height (tomato; [10]): 11.6 cm | Growth rate (tomato; [11]): 0.8 cm/day | Plant height (tomato; [11]): 13.9 cm | Growth rate (tomato; [12]): 1.1 cm/day | Leaf number (tomato; [12]): 11.0 | Plant height (tomato; [12]): 18.2 cm | Plant height (tomato; 100 ppm PBI-429, 0 days after treatment): 6.3 cm | Growth rate (tomato; [13]): 0.6 cm/day | Plant height (tomato; [13]): 8.4 cm | Growth rate (tomato; [14]): 0.5 cm/day | Plant height (tomato; [14]): 9.4 cm | Growth rate (tomato; [15]): 0.7 cm/day | Plant height (tomato; [15]): 10.8 cm | Growth rate (tomato; [16]): 0.7 cm/day | Plant height (tomato; [16]): 12.8 cm | Growth rate (tomato; [17]): 0.9 cm/day | Leaf number (tomato; [17]): 10.8 | Plant height (tomato; [17]): 16.2 cm | Plant height (tomato; 200 ppm PBI-429, 0 days after treatment): 6.4 cm | Growth rate (tomato; [18]): 0.5 cm/day | Plant height (tomato; [18]): 7.9 cm | Growth rate (tomato; [19]): 0.4 cm/day | Plant height (tomato; [19]): 8.7 cm | Growth rate (tomato; [20]): 0.5 cm/day | Plant height (tomato; [20]): 9.6 cm | Growth rate (tomato; [21]): 0.4 cm/day | Plant height (tomato; [21]): 10.9 cm | Growth rate (tomato; [22]): 0.7 cm/day | Leaf number (tomato; [22]): 10.5 | Plant height (tomato; [22]): 13.8 cm | Tomato leaf number (in words) (tomato; 14 days after treatment, PBI-429 25-200 ppm, trinexapac-ethyl 250-2000 ppm, alone or combined): only significantly reduced leaf number at the highest rate | Tomato growth rate in terms of plant height (in words) (tomato; [23]): decreased tomato growth rate | Tomato plant height (in words) (tomato; [23]): decreased tomato plant height
